Reference: US10865216B2, “Tricyclic Gyrase inhibitors” (MERCK SHARP & DOHME CORP., priority 2012, dated 2020)
Converted amounts (≈) assume the structure as drawn. Like-named read-outs stand apart in the source and are kept apart here.

Columns and labels:
Type in all cases: cell-based
S. aureus ATCC 13709 = experiment: MIC, S. aureus ATCC 13709; conditions: for MIC: Staphylococcus aureus; for SA MIC: Table 17, comparative, new species of R2; for MIC Sa: S. aureus; for Sa MIC: Table 10
S. pneumoniae ATCC 51916 = experiment: MIC, S. pneumoniae ATCC 51916; conditions: for MIC: Streptococcus pneumoniae, ATCC51916; for MIC / Spn MIC: Table 10, Spn = S. pneumoniae; for Spn52 MIC: Table 17, comparative, Spn52 not defined
P. aeruginosa ATCC 15692 = experiment: MIC, P. aeruginosa ATCC 15692; conditions: for MIC: Pseudomonas aeruginosa, ATCC15692; for MIC / Pa MIC: Table 10, Pa = P. aeruginosa; for PA MIC: Table 17, comparative, new species of R2
[1] = test system: K. pneumoniae ATCC 700603; experiment: MIC, K. pneumoniae ATCC 700603; conditions: Table 10, Kpn = K. pneumoniae; for MIC: Klebsiella pneumoniae, ATCC700603
E. coli ATCC 25922 = experiment: MIC, E. coli ATCC 25922; conditions: for MIC: Escherichia coli; for MIC Ec: E. coli; for Ec MIC: Table 10
A. baumannii ATCC 19606 = experiment: MIC, A. baumannii ATCC 19606; conditions: Table 10, Ab = A. baumannii, strain not stated; for MIC: Acinetobacter baumannii, ATCC19606
[2] = test system: B. thailandensis ATCC E264; experiment: microbe, parasite or virus in culture
Y. pestis CO92 pgm- = conditions: Table 10
[3] = test system: F. tularensis holarctica LVS; experiment: microbe, parasite or virus in culture; conditions: Table 10; Ft = F. tularensis, strain not stated
[4] = ATCC13709, S. aureus, Alamar Blue read after overnight incubation at 35° C., read-out: MIC Sa
[5] = ATCC13709, Table 10, Sa = S. aureus, read-out: Sa MIC
[6] = ATCC25922, E. coli, Alamar Blue read after overnight incubation at 35° C., read-out: MIC Ec
[7] = ATCC25922, Table 10, Ec = E. coli, strain not stated, read-out: Ec MIC
[8] = Alamar Blue read after overnight incubation at 35° C.
[9] = Ec = E. coli, strain not stated

| Structure (SMILES) | MIC Sa (S. aureus ATCC 13709; [8]) [mg/L] | Sa MIC (S. aureus ATCC 13709; Sa = S. aureus) [mg/L] | Bt MIC [2] [mg/L] | Spn MIC (S. pneumoniae ATCC 51916) [mg/L] | Pa MIC (P. aeruginosa ATCC 15692) [mg/L] | Yp MIC (Y. pestis CO92 pgm-) [mg/L] | Ft MIC [3] [mg/L] | Kpn MIC [1] [mg/L] | MIC Ec (E. coli ATCC 25922; [8]) [mg/L] | Ec MIC (E. coli ATCC 25922; [9]) [mg/L] | Ab MIC (A. baumannii ATCC 19606) [mg/L] | also measured |
| --- | --- | --- | --- | --- | --- | --- | --- | --- | --- | --- | --- | --- |
| CNc1cc(F)c(C)c2c1[nH]c1nc(Oc3cnc(C)nc3)nc(N3C[C@H](N)C4(CC4)C3)c12 [Compound 6.290] |  |  |  |  |  |  |  |  |  |  |  | MIC (S. aureus ATCC 13709; [4]): ≤ 0.5 mg/L; MIC (S. aureus ATCC 13709; [5]): ≤ 0.5 mg/L; MIC (S. pneumoniae ATCC 51916): ≤ 0.5 mg/L; MIC (P. aeruginosa ATCC 15692): 2 mg/L (≈ 4.46 µM); MIC [1]: 2 mg/L (≈ 4.46 µM); MIC (E. coli ATCC 25922; [6]): ≤ 0.5 mg/L; MIC (E. coli ATCC 25922; [7]): ≤ 0.5 mg/L; MIC (A. baumannii ATCC 19606): ≤ 0.5 mg/L |
| CNc1cc(F)c(C)c2c1[nH]c1nc(Oc3cnc(C)nc3)nc(N3CC4C[C@@H]3C[C@H]4N)c12 [Compound 6.280] |  |  |  |  |  |  |  |  |  |  |  | MIC (S. aureus ATCC 13709; [4]): ≤ 0.5 mg/L; MIC (S. aureus ATCC 13709; [5]): ≤ 0.5 mg/L; MIC (S. pneumoniae ATCC 51916): ≤ 0.5 mg/L; MIC (P. aeruginosa ATCC 15692): 1 mg/L (≈ 2.23 µM); MIC [1]: 2 mg/L (≈ 4.46 µM); MIC (E. coli ATCC 25922; [6]): ≤ 0.5 mg/L; MIC (E. coli ATCC 25922; [7]): ≤ 0.5 mg/L; MIC (A. baumannii ATCC 19606): ≤ 0.5 mg/L |
| CNc1cc(F)cc2c1[nH]c1nc(Oc3cnc(C)nc3)nc(N3C[C@H]4C[C@@H]3C[C@H]4N)c12 |  |  |  |  |  |  |  |  |  |  |  | SA MIC (S. aureus ATCC 13709): ≤ 0.016 mg/L; Spn52 MIC (S. pneumoniae ATCC 51916): ≤ 0.016 mg/L; PA MIC (P. aeruginosa ATCC 15692): 1 mg/L |
| CNc1cc(F)cc2c1[nH]c1nc(Oc3cnc4cccnc4c3)nc(N3CC4C(N)C4C3)c12 (stereo not drawn) [Compound 4.035] | ≤0.5 | ≤0.5 | ≤0.5 | ≤0.5 | 4 | ≤0.5 | 1 | 2 | ≤0.5 | ≤0.5 | ≤0.5 |  |
| CNc1cc(F)cc2c1[nH]c1nc(Oc3cnc(C)nc3)nc(N3CC(N)C4(CC4)C3)c12 (stereo not drawn) [Compound 4.069] | ≤0.5 | ≤0.5 | ≤0.5 | ≤0.5 | 4 | ≤0.5 | 2 | 2 | ≤0.5 | ≤0.5 | ≤0.5 |  |
| CNc1cc(F)cc2c1[nH]c1nc(Oc3cnc4c(C)cnn4c3)nc(N3C[C@H]4C[C@@H]3C[C@H]4N)c12 [drawing 1831] |  |  |  |  |  |  |  |  |  |  |  | SA MIC (S. aureus ATCC 13709): ≤ 0.016 mg/L; Spn52 MIC (S. pneumoniae ATCC 51916): ≤ 0.001 mg/L; PA MIC (P. aeruginosa ATCC 15692): 0.5 mg/L |
| CNc1cc(F)cc2c1[nH]c1nc(Oc3cnc(C)nc3)nc(N3CC4CC(N)C4C3)c12 (stereo not drawn) [Compound 4.084] | ≤0.5 | ≤0.5 | ≤0.5 | ≤0.5 | 1 | ≤0.5 | ≤0.5 | 4 | ≤0.5 | ≤0.5 | ≤0.5 |  |
| CNc1cc(F)cc2c1[nH]c1nc(Oc3cnc(C(C)O)nc3)nc(N3CC4(CCC4N)C3)c12 (stereo not drawn) [Compound 4.410] | ≤0.5 | ≤0.5 |  | ≤0.5 | 1 |  |  | 2 | ≤0.5 | ≤0.5 | 2 |  |
| CNc1cc(F)cc2c1[nH]c1nc(Oc3cnc(C)nc3)nc(N3CC4C(N)C4C3)c12 (stereo not drawn) [Compound 4.073] | ≤0.5 | ≤0.5 | ≤0.5 | ≤0.5 | 4 | ≤0.5 | 1 | 2 | ≤0.5 | ≤0.5 | ≤0.5 |  |
| CNc1cc(F)cc2c1[nH]c1nc(Oc3cnc(C)nc3)nc(N3C[C@@H]4CCN[C@@H]4C3)c12 [Compound 4.103] | ≤0.5 | ≤0.5 | ≤0.5 | ≤0.5 | 2 | ≤0.5 | 1 | 2 | ≤0.5 | ≤0.5 | ≤0.5 |  |
| CNc1cc(F)cc2c1[nH]c1nc(Oc3cnc(C)nc3)nc(N3CC4NCCC4(C)C3)c12 (stereo not drawn) [Compound 4.157] | ≤0.5 | ≤0.5 |  | ≤0.5 | 8 |  |  | 4 | ≤0.5 | ≤0.5 | ≤0.5 |  |
| CNc1cc(F)cc2c1[nH]c1nc(Oc3cnc(C)nc3)nc(N3CCC4(CCC4N)C3)c12 (stereo not drawn) [Compound 4.117] | ≤0.5 | ≤0.5 | ≤0.5 | ≤0.5 | 1 | ≤0.5 | 1 | 2 | ≤0.5 | ≤0.5 | ≤0.5 |  |
| CNc1cc(F)cc2c1[nH]c1nc(Oc3ccc(C#N)nc3)nc(N3C[C@H]4C[C@@H]3C[C@H]4N)c12 [Compound 4.434] |  |  |  |  |  |  |  |  |  |  |  | MIC (S. aureus ATCC 13709; [4]): ≤ 0.5 mg/L; MIC (S. aureus ATCC 13709; [5]): ≤ 0.5 mg/L; MIC (S. pneumoniae ATCC 51916): ≤ 0.5 mg/L; MIC (P. aeruginosa ATCC 15692): 1 mg/L (≈ 2.25 µM); MIC [1]: 1 mg/L (≈ 2.25 µM); MIC (E. coli ATCC 25922; [6]): ≤ 0.5 mg/L; MIC (E. coli ATCC 25922; [7]): ≤ 0.5 mg/L; MIC (A. baumannii ATCC 19606): ≤ 0.5 mg/L |
| CNc1cc(F)cc2c1[nH]c1nc(Oc3cnc(C)nc3)nc(N3CC4(CC[C@H]4N)C3)c12 [Compound 4.105] | ≤0.5 | ≤0.5 | ≤0.5 | ≤0.5 | 1 | ≤0.5 | 1 | 2 | ≤0.5 | ≤0.5 | ≤0.5 |  |
| CNc1cc(F)cc2c1[nH]c1nc(Oc3cnc(C)nc3)nc(C3C[C@H]4CCN[C@H]4C3)c12 (stereo partly drawn) |  |  |  |  |  |  |  |  |  |  |  | SA MIC (S. aureus ATCC 13709): < 0.03 mg/L; Spn52 MIC (S. pneumoniae ATCC 51916): < 0.03 mg/L; PA MIC (P. aeruginosa ATCC 15692): 2 mg/L |
